Data on 7 compounds can be found in patent US10485773B2, “Benzenesulfonamide derivatives and method for treating cancer” (GONGWIN BIOPHARM HOLDINGS CO., LTD., priority 2016, dated 2019).

Data set [1] can be described thus: second dissolution test in DMSO or water. Conditions: for Total volume of DMSO for dissolving the p-TSA derivatives / Total volume of water for dissolving the p-TSA derivatives: second dissolution test, 0.1 g powder; for dissolution in the second dissolution test: 100 mg powder, DMSO or water. Format: physicochemical. On the procedure: A second dissolution test was performed for the undissolved p-TSA derivatives. Each of 100 mg p-TSA derivatives powder was placed in each of the scintillation vial, followed by adding 500 μL DMSO or 500 μL water and shaking for 30 seconds for dissolution observation.

Data set [2] in a line: first dissolution test in DMSO or water. The note with it: for Total volume of DMSO for dissolving the p-TSA derivatives / Total volume of water for dissolving the p-TSA derivatives: first dissolution test, amount for a 3M solution in 0.5 mL, up to 15000 μL; for dissolution in the first dissolution test: DMSO or water; for solubility: thermodynamic from solid. As to the method:
Each of the powder of p-TSA derivatives was duplicated, placed in each 15 mL centrifuge tube, followed by adding 200 μL DMSO or 200 μL water and shaking for 10 to 20 seconds for dissolution observation. If the powder was not dissolved, additional DMSO or water was added, and then the mixture was shaken. The tube was left to stand for 10 minutes for observation if the powder was still not dissolved after adding 1 mL DMSO or 1 mL water. If the powder was still not dissolved after adding 5 mL DMSO or 5 mL water, additional 1 mL DMSO or 1 mL water was added, and then the mixture was shaken for 30 seconds. If the powder was still not dissolved after adding 10 mL DMSO or 10 mL water, the tube was left to stand for 12 to 16 hours and observed on the next day. DMSO or water was added into the tube having the undissolved p-TSA derivatives up to 15 mL, followed by shaking for 30 minutes for observation.

Data set [3] relates to human liver cancer cell lines Hep3B. The experiment in a line: SRB growth inhibition of liver cancer cells. Format: cell-based. The note with it: 48 hours, SRB. As to the method:
(§1) After letting to stand for 10 minutes at room temperature, the supernatant of each well was removed, and each well was washed with 200 μL H2O once. […] Each of the plates was then placed in the laminar flow cabinet for 1 hour for air dry. 50 μL 0.4% sulforhodamine B (SRB) dye was added into each well of the 96-well plate. […] Each of the plates was then placed in the laminar flow cabinet for 40 minutes to 1 hour for air dry. 1×Tris-Base solution with pH 7.0 to 7.4 was added to each well of the 96-well plate to dissolve the protein complex formed in the bottom of each well, followed by tapping the 96-well plate, allowing the complex in each well to be dissolved uniformly. Absorption of each well under 515 nm was read. […] Each of the experimental group was performed in triplet.

Data set [4] has as its system human non-small-cell lung cancer cell lines H460. As to the kind of experiment: SRB growth inhibition of lung cancer cells. Format: cell-based. The note with it: 48 hours, SRB. On the procedure: as §1
The mark [5] stands for this setting: Homo sapiens, Hep3B, 48 h, derivative dissolved in DMSO, read-out: IC50 of Hep3B in DMSO.
The mark [6] stands for this setting: Homo sapiens, NCI-H460, 48 h, derivative dissolved in DMSO, read-out: IC50 of H460 in DMSO.

The structures appear in SMILES notation. Values after ≈ are worked out from the molar mass of the structure shown. Like-named read-outs stand apart in the source and are kept apart here.

`Cc1ccc(S(=O)(=O)N2CCC(O)CC2)cc1` [PTSA032]: the “Total volume of DMSO for dissolving the p-TSA derivatives” value in data set [1] is listed as “insoluble in 20 ml mL”; in data set [1] (listed as PTSA0032), > 20 mL; in data set [2] (DMSO) it was “insoluble in 15000 μL”. Moreover, the “Total volume of water for dissolving the p-TSA derivatives” value in data set [1] is given as “insoluble in 20 mL”; in data set [1] (listed as PTSA0032), > 20 mL; in data set [2] (water), “insoluble in 15000 μL”. The “Dissolution of p-TSA derivatives (in DMSO and/or water)” value in data set [2] (overall result of first and second dissolution tests, category is the column head of Table 3) was “not dissolved in neither DMSO nor water”.
Take `Cc1ccc(S(=O)(=O)NCCF)cc1` [PTSA049]: the 50% inhibitory concentration (IC50) in data set [3] (setting [5]) and in data set [4] (setting [6]) was > 174 µM in each case. In addition, in data set [1], the “dissolution in the second dissolution test” value was “dissolved in both of”. Further, the “Total volume of DMSO for dissolving the p-TSA derivatives” value in data set [1] was 9.5 mL; in data set [2] (DMSO), “insoluble in 15000 μL”. The “Total volume of water for dissolving the p-TSA derivatives” value in data set [1] is reported as “insoluble in 20 mL”; in data set [2] (water), “insoluble in 15000 μL”. Also, the “dissolution in the first dissolution test” value in data set [2] is “not dissolved in DMSO or water”.
For `CC(=O)NS(=O)(=O)c1ccc(C)cc1` [PTSA002], the 50% inhibitory concentration (IC50) in data set [3] (Homo sapiens, Hep3B, 48 h, derivative dissolved in water, read-out: IC50 of Hep3B in water) was > 6030 µM; in data set [3] (derivative dissolved in DMSO, read-out: IC50 of Hep3B in DMSO), > 270 µM; in data set [4] (Homo sapiens, NCI-H460, 48 h, derivative dissolved in water, read-out: IC50 of H460 in water) it was > 6030 µM; in data set [4] (derivative dissolved in DMSO, read-out: IC50 of H460 in DMSO), > 270 µM. Further, in data set [1], the “dissolution in the second dissolution test” value is listed as “dissolved in both of”. The “Total volume of DMSO for dissolving the p-TSA derivatives” value is reported as 8 mL in data set [1] and “insoluble in 15000 μL” in data set [2] (DMSO). Further, the results for the “Total volume of water for dissolving the p-TSA derivatives” value in data set [1] and in data set [2] (water) were 5.25 mL and “insoluble in 15000 μL”, respectively. For the same compound, the “dissolution in the first dissolution test” value in data set [2] is listed as “not dissolved in DMSO or water”.
As to `Cc1ccc(S(=O)(=O)N2CC(=NNC(=O)C3CN(S(=O)(=O)c4ccc(C)cc4)C3)C2)cc1` [PTSA073], the “dissolution in the second dissolution test” value in data set [1] was “dissolved in both of”. The “Total volume of DMSO for dissolving the p-TSA derivatives” value in data set [1] is 4.04 mL; in data set [2] (DMSO), “insoluble in 15000 μL”. Further, the entries for the “Total volume of water for dissolving the p-TSA derivatives” value in data set [1] and in data set [2] (water) were “insoluble in 20 mL” and “insoluble in 15000 μL”, respectively. In data set [2], the “dissolution in the first dissolution test” value was “not dissolved in DMSO or water”.
For `Cc1ccc(S(=O)(=O)N[C@@H](C)CO)cc1` [PTSA026], the IC50 in data set [3] (setting [5]) came to 3920 µM; in data set [4] (setting [6]), 3250 µM. Besides, in data set [2] (DMSO), the “Total volume of DMSO for dissolving the p-TSA derivatives” value stood at 500 µL. Besides, the “Total volume of water for dissolving the p-TSA derivatives” value in data set [2] (water) is “insoluble in 15000 μL”.
For `Cc1ccc(S(=O)(=O)N2CC(C(=O)NO)C2)cc1` [PTSA067], the IC50 in data set [3] (setting [5]) was determined as 261 µM; in data set [4] (setting [6]), 273 µM. Besides, the solubility in data set [2] (DMSO, organic solvent or mixture) is 466 mg/mL (≈ 1720 mM); in data set [2] (water), < 50 mg/mL. Further, the “Total volume of DMSO for dissolving the p-TSA derivatives” value in data set [2] (DMSO) came to 870 µL. For the same compound, the “Total volume of water for dissolving the p-TSA derivatives” value in data set [2] (water) is on record as “insoluble in 15000 μL”.
Regarding `COCCCNS(=O)(=O)c1ccc(C)cc1` [PTSA043], the IC50 in data set [3] (setting [5]) was determined as 1840 µM; in data set [4] (setting [6]) it was 1610 µM. The “Total volume of DMSO for dissolving the p-TSA derivatives” value in data set [2] (DMSO) is 505 µL. Moreover, the “Total volume of water for dissolving the p-TSA derivatives” value in data set [2] (water) was “insoluble in 15000 μL”.

In general, IC50 refers to the concentration at which inhibition is half-maximal. The term solubility denotes the dissolved amount per volume that the medium holds.
